Measured values taken from patent publication US8603737B2, “Methods for identifying HCV protease inhibitors” (priority 2008, dated 2013).

Tests used:
[1] = biological target: T1, NS3 protease self-cleavage in Huh-7-Luc-Neo-ET cells (Hepatitis C virus genotype 1b, UniProt Q9WMX2, E1202G/T1280I); format: cell-based, HCV; conditions: wild type replicon cells
T1 construct: host or cells: Huh-7-Luc-Neo-ET replicon cells (human hepatoma Huh7)
Description: Inhibition of Protease Self Cleavage
The remaining wells were rinsed 2× with PBS then fed with Replicon Media and returned to the incubator.
(§1) Cell lysates were separated by SDS-Page (4-20%) and transferred to Immobilon-P PVDF membrane (Millipore Corporation, MA) and blotted with polyclonal anti NS3 antibody (Bioenza, Calif.). Blots were scanned on an Odyssey infrared scanner from Licor and the FL band and cleavage products were quantified separately using the Licor software provided with the scanner. The cleavage product was calculated as a percentage of the total NS3 in each sample and then normalized to the DMSO control so that the DMSO control reflects 100% activity.

[2] = system: HCV NS3/4A genotypes 1a, 1b, 2a, and 3a; assay: Mass spectrometric analysis of covalent modification, NS3/4A genotypes; format: binding; conditions: 3 hours reaction, each genotype 1a, 10-fold excess of compound
Description: Mass spectrometric analysis of HCV wild type or HCV variants (C159S, A156S, R155K, D168A, A156T, and D168V) in the presence of test compound was performed. 100 pmols of HCV wild type (Bioenza Calif.) was incubated with test compound for 1 hr and 3 hrs at 10-fold excess of test compound to protein. 1 μL aliquots of the samples (total volume of 4.24 μL) were diluted with 10 μL of 0.1% TFA prior to micro C4 ZipTipping directly onto the MALDI target using Sinapinic acid as the desorption matrix (10 mg/mL in 0.1% TFA:Acetonitrile 50:50). Analyses were performed on a Shimadzu Biotech Axima TOF (Shimadzu Instruments) matrix-assisted-laser desorption/ionization Time-of-Flight (MALDI-TOF) mass spectrometer. The same procedure was carried out on 100 pmols of HCV C159S mutant of HCV protease for 3 hrs at 10-fold excess of test compound to protein.
In addition, mass spectrometric analysis of HCV NS3/4A genotypes 1a, 1b, 2a, and 3a in the presence of test compound was performed using the above protocol.

[3] = system: HCV RNA replicon in cell line ET (luc-ubi-neo/ET), human Huh7 hepatoma; assay: Luciferase reporter replicon assay (Example 5, Method C); format: cell-based; conditions: Hepatitis C virus, Huh-7, 72 hr, EC90, read-out: Inhibition, Replicon, EC90 value
Description: Method C: Luciferase Reporter Assay Protocol
The compounds were assayed to evaluate the antiviral activity and cytotoxicity of compounds using replicon-derived luciferase activity. This assay used the cell line ET (luc-ubi-neo/ET), which is a human Huh7 hepatoma cell line that contains an HCV RNA replicon with a stable luciferase (Luc) reporter and three cell culture-adaptive mutations. The ET cell line was grown in a 5% CO2 incubator at 37° C. in Dulbecco's modified essential media (DMEM), supplemented with 2 mM L-glutamine (“1%”), nonessential amino acids, 100 U of penicillin/mL, 100 μg of streptomycin/mL (“1%”), 10% fetal bovine serum and 400 μg/mL G418 (Geneticin; Invitrogen).
All cell culture reagents were obtained from Invitrogen (Carlsbad). Cells were trypsinized (1% trypsin:EDTA) and plated out at 5×10^3 cells/well in white 96-well assay plates (Costar) dedicated to cell number (cytotoxicity) or antiviral activity assessments. Test compounds were added at six 3-fold serial dilutions each and the assay was run in DMEM, 5% FBS, 1% pen-strep, 1% glutamine, 1% non essential amino acid. Human interferon alpha-2b (PBL Biolabs, New Brunswick, N.J.) was included in each run as a positive control compound. Cells were processed 72 hr post test compound addition when the cells were still subconfluent. Antiviral activity was measured by analyzing replicon-derived luciferase activity using the Steady-Glo Luciferase Assay System (Promega, Madison, Wis.) according to manufacturer's instruction. The number of cells in each well was determined by Cell Titer Blue Assay (Promega). Compound profile was derived by calculating applicable EC50 (effective concentration inhibiting virus replication by 50%), EC90 (effective concentration inhibiting virus replication by 90%), IC50 (concentration decreasing cell viability by 50%) and SI50 (selective index: […]) values.

[4] = biological target: T2, D168V mutant of the HCV NS3/4A 1b protease enzyme (Hepatitis C virus genotype 1b, UniProt P26663, D1194V); assay: HCV protease FRET assay, D168V mutant; format: biochemical; conditions: read-out: Inhibition, HCV D168V (IC50)
T2 construct: 10× stocks of NS3/4A protease enzyme from Bioenza; purchased Bioenza (Mountain View, Calif.)
Description: HCV Protease FRET Assay for Mutated NS3/4A 1b Enzymes
The protocol is a modified FRET-based assay (v—02) from In Vitro Resistance Studies of HCV Serine Protease Inhibitors, 2004, JBC, vol. 279, No. 17, pp 17508-17514. Inherent potency of compounds was assessed against A156S, A156T, D168A, and D168V mutants of the HCV NS3/4A 1b protease enzyme as follows:
Assay buffer: 2% CHAPS, 50 mM Tris pH 7.5, 50% glycerol, 2 μM M-2235 (Bachem) substrate. In a 50 μl reaction, add 49 μl assay buffer, 1 μl (1 U) HCV serine protease (Bioenza). Incubate 20 minutes at room temperature. The plate was read at either 350/460 nm (excitation/emission) on a fluorescent micro-plate reader or monitored at one-minute intervals to achieve the kinetic curve.
10× stocks of NS3/4A protease enzyme from Bioenza (Mountain View, Calif.) and 1.13×5-FAM/QXL™520 FRET peptide substrate from Anaspec (San Jose, Calif.) were prepared in 50 mM HEPES, pH 7.8, 100 mM NaCl, 5 mM DTT and 20% glycerol. 5 μL of each enzyme were pre-incubated in a Corning (#3573) 384-well, black, non-treated microtiter plate (Corning, N.Y.) for 30 min at 25° C. with a 0.5 μL volume of 50% DMSO and serially diluted compounds prepared in 50% DMSO. Protease reactions were started with the addition of 45 μL of the FRET substrate and monitored for 120 minutes at λex487/λem514 through Quad^4 monochromoters in a Synergy^4 plate reader from BioTek (Winooski, Vt.). […] Initial velocity (0 minutes to 30+ minutes) from each reaction was determined from the slope of a plot of relative fluorescence units vs time (minutes) and then plotted against inhibitor concentration to estimate IC50 from log[Inhibitor] vs Response, Variable Slope model in GraphPad Prism from GraphPad Software (San Diego, Calif.). […]
The following protocol was used to generate “apparent” IC50 (IC50—APP)) values as depicted in Table 3, below. […] Protease reactions were immediately started after enzyme addition with the addition of 45 μL of the FRET substrate and monitored for 60-90 minutes at λex485/λem520 in a Synergy^4 plate reader from BioTek (Winooski, Vt.). […]

[5] = biological target: T3, NS3 protease R155K self-cleavage in modified replicon system (Hepatitis C virus genotype 1b, UniProt Q9WMX2, E1202G/R1181K/T1280I); assay: Inhibition of protease self cleavage in R155K modified replicon system (washout); format: cell-based, HCV; conditions: R155K modified replicon system (FIG. 6)
T3 construct: expressed in transfected cells; host or cells: replicon cells carrying the R155K-mutated pFK-I389-luc-ubi-neo-NS3-3'ET replicon
Description: Constructs containing clinically relevant mutations were generated by performing site-directed mutagenesis on the pFK-1389-luc-ubi-neo-NS3-3′ET plasmid (ReBLikon Gmbh (Heidelberg, Germany)). using the QuickChange II Site-Directed Mutagenesis Kit (Stratagene, La Jolla, Calif.) according to manufacturer's directions and with the primers described in Table 2.
Huh-7-Luc-Neo-ET cells were plated in Replicon Assay Medium (RPMI supplemented with 5% FBS, 1× non-essential amino acids and pen/strep) at a density of 1×10^5 cells/well in 12 well plates. Eight hours later the media was removed and replaced with 1 mL media containing test compound (5 wells per compound) and 0.02% DMSO and the cells were returned to the incubator overnight. […]
as §1, with “activity. […]” for “activity.”

## CCC[C@H](NC(=O)[C@@H]1[C@H]2CCC[C@H]2CN1C(=O)[C@@H](NC(=O)[C@@H](NC(=O)c1cnccn1)C1CCCCC1)C(C)(C)C)C(=O)C(=O)NC1CC1 [Compound 1, reference compound]
[1]; 16 hours incubation, in as little as 4 hours after drug removal
  return of NS3 self-cleavage activity after drug removal: virtually complete return of activity

## C=C[C@@H]1C[C@]1(NC(=O)[C@@H]1C[C@@H](Oc2nccc3cc(OC)ccc23)CN1C(=O)[C@H](CCC(=O)C=C(C)C)NC(=O)OC(C)(C)C)C(=O)NS(=O)(=O)C1CC1 [Compound 5]
[2]
  covalent modification of HCV NS3/4A (mass spectrometry): measurable covalent modification

## C=C[C@@H]1C[C@]1(NC(=O)[C@@H]1C[C@@H]2CN1C(=O)[C@H](CCC(=O)C=C(C)C)NC(=O)OCCC/C=C/c1ccc3ccnc(c3c1)O2)C(=O)NS(=O)(=O)C1CC1 [Compound 6]
[3]
  EC90: < 10 nM

## C=CC(=O)N[C@H](C)C(=O)N1C[C@H](Oc2cc(-c3ccccc3)nc3cc(OC)ccc23)C[C@H]1C(=O)N[C@]1(C(=O)NS(=O)(=O)C2CC2)C[C@H]1C=C [Compound 7]
[4]
  IC50: 100 to 1000 nM
[1]; up to 24 hours after compound removal (FIG. 5)
  inhibition of NS3 self-cleavage after compound removal: virtually complete inhibition
[5]
  duration of inhibition of mutant protease activity after compound removal: at least 24 hours
